Earlier results on 63 compounds are cited in the CATMoS acute toxicity set (Mansouri et al. 2021).

Where “and” joins values, the source holds several entries; their conditions need not be identical. Equal values may be shown once.

The nature of this data set: rat acute oral toxicity. Particulars: in vivo.
A word on the LD50: it is the dose at which mortality reaches 50%. Turning to `C[C@H](CCC(=O)O)[C@H]1CC[C@H]2[C@@H]3[C@H](O)C[C@@H]4C[C@H](O)CC[C@]4(C)[C@H]3CC[C@]12C`, the LD50 is 4000 mg/kg.
As for `CCOP(=O)(SC(C)CC)N1CCSC1=O` (stereo not drawn), the LD50 is 57 mg/kg.
On to `CBr`, for which the LD50 is 214 mg/kg.
Turning to `CCCCCCCCCCCCCCOCCOCCOCCOCCOCCOCCOCCO`, the LD50 is 2600 mg/kg.
Consider `CC1(c2ccccc2)OC(C(=O)O)=CC1=O` (stereo not drawn), for which the LD50 was 3000 mg/kg.
With `C[C@H](CCC(=O)O)[C@H]1CC[C@H]2[C@@H]3CC[C@@H]4C[C@H](O)CC[C@]4(C)[C@H]3C[C@H](O)[C@]12C`, the median lethal dose (LD50) is 1370 mg/kg and 1000 mg/kg.
Consider `CC(Br)C=CCl` (stereo not drawn), for which the LD50 was 74 mg/kg.
On to `Clc1ccc2c(c1)C(c1ccccc1)=NCc1nncn1-2`, for which the 50% lethal dose (LD50) was 2500 mg/kg.
For the compound `CC(CCl)[N+](=O)[O-]` (stereo not drawn), the LD50 is 197 mg/kg.
Take `CCN(CCCl)c1ccccc1`: the median lethal dose (LD50) was 616 mg/kg.
As for `CN(C)CCNC(=O)C(C)(C)Oc1ccc(Cl)cc1`, the LD50 was 130 mg/kg.
In the case of `CCOC(=O)CSP(=S)(OCC)OCC`, the LD50 was 1100 mg/kg.
As for `C#CC(C)(CCC=C(C)C)OC(C)=O` (stereo not drawn), the 50% lethal dose (LD50) is 9620 mg/kg.
For the compound `O=C1CN=C(c2ccccn2)c2cc(Br)ccc2N1`, the LD50 was 1950 mg/kg.
As to `CCOP(=O)(OCC)SCS(=O)(=O)CC`, the median lethal dose (LD50) was 0.5 mg/kg.
Turning to `NC(=O)C(c1ccccc1)c1ccccc1`, the LD50 is 600 mg/kg.
In the case of `Cn1cc[nH]c1=S`, the LD50 is 2250 mg/kg.
With `COc1ccc2c3c1O[C@H]1[C@H](N=[N+]=[N-])CC[C@H]4[C@@H](C2)N(C)CC[C@@]341`, the LD50 is 120 mg/kg.
As for `CC(C)Nc1ccccc1`, the LD50 is 560 mg/kg.
On to `COc1cc2c(cc1OC)C(c1ccc(N)cc1)=NN=C(C)C2`, for which the LD50 was 128 mg/kg.
For `N=C1C=C(Br)C(=O)c2c(N)cc(Br)c(O)c21`, the LD50 was 2400 mg/kg.
On to `CNC(=O)ON=C1SCSC1(C)C`, for which the LD50 is 0.67 mg/kg.
`Cc1ccc(C(C)OC(=O)C2(C)CCC(C(=O)O)C2(C)C)cc1` (stereo not drawn): the median lethal dose (LD50) is 2810 mg/kg.
With `c1nnc(NCNc2nncs2)s1`, the 50% lethal dose (LD50) is 260 mg/kg.
On to `CC(C)NC1CCC(c2ccccc2)(c2ccccc2)CC1`, for which the LD50 was 623 mg/kg.
Regarding `CCC(c1ccccc1)c1noc(CCN(CC)CC)n1` (stereo not drawn), the LD50 is 1400 mg/kg.
Turning to `NCCN(CCN)CCN`, the LD50 was 246 mg/kg.
Consider `C=CCN1CCC23CCCCC2C1Cc1ccc(O)cc13` (stereo not drawn), for which the LD50 is 850 mg/kg.
Regarding `CCCCC(CC)COC(=O)C=CC(=O)OCC(CC)CCCC` (stereo not drawn), the median lethal dose (LD50) was 29200 mg/kg and 14000 mg/kg.
Take `CN(C)CCCN1c2ccccc2Sc2cccnc21`: the LD50 was 610 mg/kg.
On to `O=C(O)C(F)(F)C(F)F`, for which the LD50 is 8570 mg/kg.
For `CC1(C)NC(=O)N(c2ccc([N+](=O)[O-])c(C(F)(F)F)c2)C1=O`, the 50% lethal dose (LD50) is 195 mg/kg.
For `Cc1oncc1C(=O)Nc1ccc(C(F)(F)F)cc1`, the LD50 was 235 mg/kg.
Regarding `C#CCOP(=O)(OCCC)c1ccccc1` (stereo not drawn), the LD50 was 362 mg/kg.
As to `NC(N)=O`, the LD50 is 350 mg/kg.
`CCOP(=S)(OCC)OCCS(=O)(=O)CC`: the LD50 is 90 mg/kg.
`Cc1ccc(O)c(C2CCCCC2)c1`: the LD50 was 1870 mg/kg.
For `CC(=O)c1ccc(C(O)C(CO)NC(=O)C(Cl)Cl)cc1` (stereo not drawn), the LD50 is 1100 mg/kg.
On to `CN1CCC(N(Cc2cccs2)c2ccccc2)CC1`, for which the LD50 is 1060 mg/kg.
In the case of `CCOP(=S)(OCC)Oc1cc([N+](=O)[O-])c(Cl)cc1Cl`, the 50% lethal dose (LD50) is 100 mg/kg.
In the case of `O=[N+]([O-])c1ccc(/C=N/NC(=S)N2CCCC2)o1`, the LD50 is 750 mg/kg.
For `CCOC(=O)OC(C)OC1=C(C(=O)Nc2ccccn2)N(C)S(=O)(=O)c2ccccc21` (stereo not drawn), the 50% lethal dose (LD50) was 747 mg/kg.
In the case of `O=C1C2C3CCC(C3)C2C(=O)N1CCCCN1CCN(c2ncccn2)CC1` (stereo not drawn), the 50% lethal dose (LD50) is 590 mg/kg.
Turning to `Cc1cccc(Nc2ccccc2C(=O)O)c1C`, the 50% lethal dose (LD50) was 740 mg/kg.
On to `CCCCC(CC)COC(=O)CCCCCCCCCCC(=O)OCC(CC)CCCC` (stereo not drawn), for which the LD50 is 21500 mg/kg.
For `Nc1ccc(F)c([N+](=O)[O-])c1`, the LD50 is 1100 mg/kg.
As to `CN1CCC[C@@H]1CCO[C@](C)(c1ccccc1)c1ccc(Cl)cc1`, the LD50 is 3550 mg/kg.
In the case of `CC(C)N(Sc1nc2ccccc2s1)C(C)C`, the 50% lethal dose (LD50) was 5200 mg/kg.
Regarding `CCC(=C(c1ccc(OCCN(C)C)cc1)c1ccc(OP(=O)(O)O)cc1)c1ccc(C(C)C)cc1`, the LD50 is 785 mg/kg.
Regarding `COc1ccc(-c2ccccc2)cc1CN1CCCC1`, the median lethal dose (LD50) was 28 mg/kg.
With `CCOC(=O)CN(C)N=O`, the LD50 is 4000 mg/kg.
Regarding `Clc1cccc(-c2cc(Cl)cc(Cl)c2)c1`, the 50% lethal dose (LD50) was 2300 mg/kg.
As to `Cc1ccc(CC(C)N)cc1` (stereo not drawn), the LD50 is 150 mg/kg.
As for `CC1(C)C2CC=C(CCO)C1C2` (stereo not drawn), the 50% lethal dose (LD50) was 890 mg/kg.
Consider `CCCCOCCOCCOCCO`, for which the 50% lethal dose (LD50) is 5300 mg/kg.
As for `N#C[Se]Cc1ccccc1`, the LD50 is 98.5 mg/kg.
In the case of `Cc1nnc(NS(=O)(=O)c2ccc(N)cc2)s1`, the 50% lethal dose (LD50) is 3500 mg/kg.
With `Cc1cccc(C)c1NC1=NCCCS1`, the median lethal dose (LD50) is 130 mg/kg.
On to `Clc1ccc(S/N=N/c2cc(Cl)c(Cl)cc2Cl)cc1`, for which the LD50 was 4000 mg/kg.
Consider `S=C1NCCS1`, for which the LD50 is 300 mg/kg.
Turning to `CC(C(=O)O)c1ccc(Oc2nccs2)cc1` (stereo not drawn), the LD50 is 135 mg/kg.
In the case of `CNC(=O)ON=C1SCC(=O)NC1C` (stereo not drawn), the median lethal dose (LD50) is 5.66 mg/kg.
On to `O=c1ncc2[nH]c(=O)[nH]c2[nH]1`, for which the median lethal dose (LD50) is 1820 mg/kg.
